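Assay format: 96-well plates, 48-hour exposure. GI50: concentration for 50% inhibition of growth. TGI marks complete inhibition of growth.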

Assay in all cases: NCI-60 cell line screen, 48 h
Experiment [1] relates to SF-539 CNS.
For experiment [2], the system named is A498 renal.
The subject of experiment [3] is SNB-19 CNS.
In experiment [4] the test system is OVCAR-3 ovarian.
Experiment [5] deals with SK-MEL-5 melanoma.
Experiment [6] concerns SR leukemia.
The test system of experiment [7] is SF-268 CNS.
The test system of experiment [8] is CAKI-1 renal.
For experiment [9], the system named is SN12C renal.
Experiment [10] deals with SK-MEL-28 melanoma.

`CC(Oc1ccc2c(-c3ccccc3)cc(=O)oc2c1)C(=O)O` (stereo not given): the TGI in [1], in experiment [2], in experiment [3], in experiment [4], in experiment [5] and in experiment [6] was over 100 µM each time. Further, the TGI in experiment [7], in experiment [8], in [9] and in experiment [10] was over 100 µM in each case.
On to `CCNC(=O)COc1ccc(Br)cc1Br`, for which the TGI in experiment [1], in experiment [2], in experiment [3], in experiment [4], in [5] and in experiment [6] was over 100 µM each time. Besides, the TGI in [7], in experiment [8], in [9] and in experiment [10] was over 100 µM in each case.
For `Nc1ccccc1C#C/C=C\C#Cc1ccc(OCCCNC(=O)c2cc3ccccc3[nH]2)cc1`, the GI50 in experiment [1] is 18.2 µM; in [2] it was 23 µM; in experiment [3], 20.6 µM; in [4] it was 11.7 µM; in experiment [5], 2.09 µM; in [6] it was 23.3 µM. In addition, the GI50 was 2.37 µM in experiment [7], 18.1 µM in experiment [8], 7.32 µM in [9] and over 100 µM in experiment [10]. The TGI in experiment [1] is 37.5 µM; in experiment [2], 48.3 µM; in experiment [3], 56.8 µM; in experiment [4] it was 95.6 µM; in experiment [5], 25.7 µM; in experiment [6] it was 99 µM. In addition, the TGI in [7] was 37.4 µM; in experiment [8] it was 72 µM; in experiment [9], 39.8 µM; in experiment [10], over 100 µM.
In the case of `Nc1nonc1-c1nc2cnccc2n1C1CC1`, the GI50 is 2.54 µM in experiment [1]; 1.97 µM in [2]; 12 µM in experiment [3]; 7.55 µM in [4]; 5.81 µM in [5]; 3.81 µM in experiment [6]. Also, the GI50 in experiment [7] was 4.98 µM; in [8] it was 1.45 µM; in [9], 7.03 µM; in experiment [10] it was 8.47 µM. The TGI was 10.1 µM in experiment [1]; 8.77 µM in experiment [2]; over 25 µM in experiment [3]; over 25 µM in experiment [4]; over 19 µM in experiment [5]; 15 µM in experiment [6]. The TGI is over 25 µM in experiment [7], over 25 µM in [8], over 25 µM in experiment [9] and over 20.9 µM in [10].
